Results taken from publication PMC6627850, “Identification of Plasmodium falciparum Mitochondrial Malate: Quinone Oxidoreductase Inhibitors from the Pathogen Box” (Genes, 2019).
Where “and” joins values, the source holds several entries; their conditions need not be identical. Equal entries are not always repeated. Where two headings read alike, the source gives them in different places.

Key:
recombinant PfMQO = recombinant PfMQO (Plasmodium falciparum, UniProt C6KT09); test: biochemical; conditions: for inhibition at 10 µM: read-out: Inhibition (%) against recombinant PfMQO; for IC50: serial dilution 10 to 0.0003 μM, quadruplicate, ± standard deviation
P. falciparum 3D7 strain = test: Plasmodium falciparum growth inhibition assay (diaphorase-coupled LDH assay, 72 hours); format: cell-based; conditions: for IC50: Plasmodium falciparum, read-out: IC50 growth of P. falciparum 3D7 strain in culture (ABS); for Growth inhibition of parasite cells (result in words): P. falciparum 3D7, LDH assay
Experimental: Human RBCs were received from Japanese Red Cross Society. The experiments were performed under the guidelines of the ethical committee in The University of Tokyo (permission no. 10050) and Nagasaki University (permission no. 19). Parasite culture was synchronized with 5% (w/v) D-sorbitol as previously described. Ring stage parasites (100 μL/well) were placed in a 96-well plate at 0.3% parasitemia. […] As a control, wells containing culture medium and RBCs alone were prepared. […] The absorbance of each well was measured at 655 nm using SpectraMax Paradigm® Multi-Mode microplate reader (Molecular Devices, San Jose, CA, USA).

ABS parasites = tested on: ABS parasites; parameters: method as in PMID 28674055; conditions: read-out: IC50 against the ABS parasites, previous study; cited from earlier work
HepG2 = tested on: HepG2; parameters: method as in earlier work; conditions: ref https://www.mmv.org/mmv-open/pathogen-box/about-pathogen-box#composition; cited from earlier work
Cryptococcus neoformans = conditions: recently reported; cited from earlier work
Candida albicans = conditions: recently reported; cited from earlier work
[1] = tested on: stage IV gametocyte cells; parameters: method as in PMID 28674055; conditions: cited from earlier work
[2] = 10 μM compound, average of 4 independent experiments
[3] = read-out: IC50 against recombinant PfMQO
[4] = 3D7, LDH assay, 72 hours incubation, average of three independent experiments ± SD

Chain of recombinant PfMQO (C6KT09 entry or part of it): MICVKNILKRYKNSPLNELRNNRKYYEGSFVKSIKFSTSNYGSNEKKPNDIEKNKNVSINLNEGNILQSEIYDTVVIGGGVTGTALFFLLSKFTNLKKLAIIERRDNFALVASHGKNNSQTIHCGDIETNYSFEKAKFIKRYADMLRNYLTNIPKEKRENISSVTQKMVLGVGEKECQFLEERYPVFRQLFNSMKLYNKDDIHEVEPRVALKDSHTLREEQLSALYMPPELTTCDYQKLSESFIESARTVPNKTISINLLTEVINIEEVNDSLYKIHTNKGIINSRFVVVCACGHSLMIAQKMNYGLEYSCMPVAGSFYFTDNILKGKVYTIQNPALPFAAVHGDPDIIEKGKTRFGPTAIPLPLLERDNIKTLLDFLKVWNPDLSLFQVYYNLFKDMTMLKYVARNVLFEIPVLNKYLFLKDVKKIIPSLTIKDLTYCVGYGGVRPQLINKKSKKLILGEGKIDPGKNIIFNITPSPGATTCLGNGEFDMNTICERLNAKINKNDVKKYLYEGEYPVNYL

Structure (SMILES)	inhibition at 10 µM (recombinant PfMQO; [2]) [%]	IC50 (recombinant PfMQO; [3])	IC50 (P. falciparum 3D7 strain; [4]) [µM]	inhibition at 10 µM (recombinant PfMQO) [%]	Growth inhibition of parasite cells (result in words) (P. falciparum 3D7 strain)	further results
N=C(N)Nc1ccc(-c2ccc(-c3ccc(NC(=N)N)c(Cl)c3)o2)cc1Cl [MMV688271]	80.5	< 5 µM and 1.15 µM	1.03	–	–	IC50 (ABS parasites): 1.21 µM; HepG2 cytotoxicity CC20 (HepG2): 13.5 µM; Antifungal effect against Cryptococcus neoformans (Cryptococcus neoformans): antifungal effect; Antifungal effect against Candida albicans (Candida albicans): antifungal effect
Cc1cc(C)cc(COc2ccc3c(C)c(CCC(=O)O)c(=O)oc3c2C)c1 [MMV676476]	–	< 5 µM and 3.57 µM	–	63.2	failed to inhibit the growth	–
COc1ccc(C2=NN(C3CCCCCC3)C(=O)C2(C)C)cc1OCCCCOc1ccc(-c2nnn[nH]2)cc1 [MMV690028]	–	–	6.05	86.7	–	IC50 (recombinant PfMQO; IC50 against recombinant PfMQO): < 5 µM and 1.1 µM
N=C(N)Nc1ccc(-c2ccc(-c3ccc(NC(=N)N)cc3Cl)o2)c(Cl)c1 [MMV688179]	76	< 5 µM and 3.96 µM	0.46	–	–	IC50 (ABS parasites): 0.59 µM; HepG2 cytotoxicity CC20 (HepG2): 6.8 µM; Activity against the stage IV gametocyte cells [1]: active
O=C(Nc1nnc(S)s1)c1cc(Br)ccc1Cl [MMV676492]	98.5	< 5 µM and 0.343 µM	–	–	failed to inhibit the growth	–
COc1ccc(C2=NN(C3CCCCCC3)C(=O)C3CC=CCC23)cc1OCCCCOc1ccc(-c2nn[nH]n2)cc1 (stereo not drawn) [MMV690027]	–	–	–	98.2	–	IC50 (P. falciparum 3D7 strain; 3D7, 72 h): 16.2 µM
O=C(NCCc1c[nH]c2ccccc12)c1cc2ccccc2oc1=O [MMV676539]	–	< 5 µM and 4.06 µM	–	65.6	failed to inhibit the growth	–
